Assay results as given in patent US20250144227A1, “C-16 MODIFIED TRIOXACARCINS, ANTIBODY DRUG CONJUGATES, AND USES THEREOF” (President and Fellows of Harvard College, priority 2021, published 2025).
Like-named read-outs stand apart in the source and are kept apart here.

Tested on: H460 cells
Experiment: Cell proliferation assay (resazurin, CellTiter-Blue), H460 cells
Format: cell-based
Settings: for GI50: Homo sapiens; for Effect of the C16 modification on potency (in words): comment on the data of Table 2 (H460 cells)
Procedure: Cell Culture: All cell-culture work was conducted in a class II biological safety cabinet. H460 cells (P2-P4, American Type Culture Collection) were maintained in RPMI-1640 medium supplemented with 10% fetal bovine serum (FBS). HL-60 cells (P2-P4, American Type Cuture Collection) were maintained in RPMI-1640 medium supplemented with 10% FBS. MES-SA/Dx-5 cells (P2-P4, European Collection of Authenticated Cell Cultures) were maintained in McCoy's 5A medium supplemented with 10% FBS.
Cell Proliferation Assay: H460 and MES-SA/Dx-5 cells were grown to approximately 80% confluence, and then were trpysinized, collected, and pelleted by centrifugation (10 min at 183 x g, 24° C.), and HL-60 cells were grown to confluence and directly pelleted by centrifugation (10 min at 183 × g, 24° C.). The supernatant was discarded and the cell pellet was resuspended in 10 mL of fresh medium. A sample was diluted 10-fold in fresh medium, and the concentration of cells was determined using a hemacytometer. The cell suspension was diluted to a concentration of 3000 cells/100 μL. The wells of a pre-sterilized 96-well plate were charged with 100 μL per well of the diluted cellular suspension. The plate was incubated for 24 h at 37° C. (5% CO2).
Stock solutions of each compound in DMSO were diluted with the appropriate media to 100 nM solutions (1% DMSO), which were then serially diluted with the appropriate media, and 100-uL aliquots of the resulting solutions were added to the wells containing adhered cells to achieve final concentrations of 0.39 nM to 50 nM. After incubating at 37° C. for 72 h (5% CO2), 20 μL of resazurin solution (Promega CellTiter-Blue® Cell Viability Assay) was added to each well. After incubating at 37° C. for 2.0 h (5% CO2), the fluorescence (544 nm excitation/590 nm emission) was recorded using a microplate reader (SpectraMax PLUS384) as a measure of viable cells.
Percent growth inhibition was calculated for each well, based upon the following formula: Percent growth inhibition=100×(S−B0)/(Bt−B0) where S is the sample fluorescence, Bt is the average fluorescence of an untreated population of cells at the completion of the assay, and B0 is the average fluorescence of an untreated population of cells at the beginning of the assay.
Each compound was assayed at eight separate concentrations per experiment. The percent inhibition at each concentration was plotted against log (concentration), and a curve fit was generated using the XLfit4 plugin (IDBS Software) running in Excel (Microsoft). GI50 values were computed to reflect the concentrations at which the resulting curves pass through 50% inhibition.

[1] = NCI-H460, H460 cells, 72 h incubation, read-out: GI50

Row | SMILES | GI50 [1] [nM] | GI50 (NCI-H460, 72 h) [nM] | Effect of the C16 modification on potency (in words)
1 | COc1c2c(c(O)c3c4c(c(C)cc13)C1OC3(COCc5ccccc5)OC1[C@@](O)(O4)[C@@]31CO1)C(=O)CCC2 (stereo partly drawn) [compound 17, (2S,2′R,3a′R, 13a′R)-2′-((Benzyloxy)methyl)-12′, 13a′-dihydroxy-7′-methoxy-5′-methyl-3a′ 4′,8′,9′,10′,13a′-hexahydro-2′H,11′H-spiro [oxirane-2,1′-[2,4]epoxyfuro[3,2-b]naphtho[2,3-h]chromen]-11′-one] | > 100 | – | –
2 | COc1c2c(c(O)c3c4c(c(C)cc13)C1O[C@]3(COCc5ccccc5)O[C@H]1[C@@](OC)(O4)[C@@]31CO1)C(=O)CCC2 (stereo partly drawn) [compound 18, (2R,2′R,3a′R, 13a′R)-2′-((Benzyloxy)methyl)-12′-hydroxy-7′,13a′-dimethoxy-5′-methyl-3a′,4′,8′,9′,10′,13a′-hexahydro-2′H, 11′H-spiro [oxirane-2,1′-[2,4]epoxyfuro[3,2-b]naphtho[2,3-h]chromen]-11′-one] | > 100 | – | –
3 | COc1c2c(c(O)c3c4c(c(C)cc13)C1OC3(CO)OC1[C@@](OC)(O4)[C@@]31CO1)C(=O)CCC2 (some centres unmarked) [compound 19, (2R.2′R,3a′R, 13a′R)-12′-Hydroxy-2′-(hydroxymethyl)-7′,13a′-dimethoxy-5′-methyl-3a′, 4′,8′,9′,10′,13a′-hexahydro-2′H, 11′H-spiro [oxirane-2,1′-[2,4]epoxyfuro[3,2-b]naphtho[2,3-h]chromen]-11′-one] | – | 5.5 | –
4 | COc1c2c(c(O)c3c4c(c(C)cc13)C1OC3(CO)OC1[C@@](O)(O4)[C@@]31CO1)C(=O)CCC2 (stereo partly drawn) [compound 20, (25,2′R,3a′R, 13a′R)-12′, 13a′-dihydroxy-2′-(hydroxymethyl)-7′-methoxy-5′-methyl-3a′, 4′,8′,9′,10′,13a′-hexahydro-2′H,11′H-spiro[oxirane-2,1′-[2.4]epoxyfuro[3,2-b]naphtho[2,3-h]chromen]-11′-one] | 15 | – | –
5 | COc1c2c(c(O)c3c4c(c(C)cc13)C1O[C@]3(CO)O[C@H]1[C@@](OC)(O4)[C@@]3(O)CBr)C(=O)CCC2 (stereo partly drawn) [compound 21, (1R,2R,3aR,13aR)-1-(bromomethyl)-1,12-dihydroxy-2-(hydroxymethyl)-7,13a-dimethoxy-5-methyl-1,2,3a,4,8,9,10,13a-octahydro-11H-2,4-epoxyfuro[3,2-b]naphtho[2,3-h]chromen-11-one] | 8 | – | –
6 | CCCOCC12OC3c4c(C)cc5c(OC)c6c(c(O)c5c4O[C@](OC)(C3O1)[C@@]21CO1)C(=O)CCC6 (stereo partly drawn) [compound 22, (2R,2′R,3a′R,13a′R)-12′-Hydroxy-7′,13a′-dimethoxy-5′-methyl-2′-(propoxymethyl)-3a′, 4′,8′,9′,10′,13a′-hexahydro-2′H,11′H-spiro[oxirane-2,1′-[2.4]epoxyfuro[3,2-b]naphtho[2,3-h]chromen]-11′-one] | 22 | – | –
7 | C=CCOCC12OC3c4c(C)cc5c(OC)c6c(c(O)c5c4O[C@](OC)(C3O1)[C@@]21CO1)C(=O)CCC6 (stereo partly drawn) [compound 23, (2R,2′R,3a′R,13a′R)-2′-((Allyloxy)methyl)-12′-hydroxy-7′,13a′-dimethoxy-5′-methyl-3a′,4′,8′,9′,10′,13a′-hexahydro-2′H, 11′H-spiro[oxirane-2,1′-[2,4]epoxyfuro[3,2-b]naphtho[2.3-h]chromen]-11′-one] | 14 | – | –
8 | C#CCOCC12OC3c4c(C)cc5c(OC)c6c(c(O)c5c4O[C@](OC)(C3O1)[C@@]21CO1)C(=O)CCC6 (stereo partly drawn) [compound 24, (2R,2′R,3a′R,13a′R)-12′-Hydroxy-7′,13a′-dimethoxy-5′-methyl-2′-((prop-2-yn-1-yloxy)methyl)-3a′,4′,8′,9′,10′,13a′-hexahydro-2′H,11′H-spiro[oxirane-2,1′-[2,4]epoxyfuro[3,2-b]naphtho[2.3-h]chromen]-11′-one] | – | 14 | –
9 | COc1c2c(c(O)c3c4c(c(C)cc13)C1O[C@]3(CN=[N+]=[N-])O[C@H]1[C@@](OC)(O4)[C@@]31CO1)C(=O)CCC2 (stereo partly drawn) [compound 25, (2R,2′R,3a′R,13a′R)-2′-(Azidomethyl)-12′-hydroxy-7′,13a′-dimethoxy-5′-methyl-3a′, 4′,8′,9′,10′,13a′-hexahydro-2′H,11′H-spiro[oxirane-2,1′-[2,4]epoxyfuro[3,2-b]naphtho[2,3-h]chromen]-11′-one] | – | 33 | good tolerance
10 | COc1c2c(c(O)c3c4c(c(C)cc13)C1O[C@]3(CN)O[C@H]1[C@@](OC)(O4)[C@@]31CO1)C(=O)CCC2 (stereo partly drawn) [compound 26, (2R,2′R,3a′R,13a′R)-2′-(Aminomethyl)-12′-hydroxy-7′,13a′-dimethoxy-5′-methyl-3a′, 4′,8′,9′,10′, 13a′-hexahydro-2′H, 11′H-spiro[oxirane-2,1′-[2,4]epoxyfuro[3,2-b]naphtho[2,3-h]chromen]-11′-one] | 10 | – | good tolerance
11 | COc1c2c(c(O)c3c4c(c(C)cc13)C1OC3(COCc5cn(Cc6ccccc6)nn5)OC1[C@@](OC)(O4)[C@@]31CO1)C(=O)CCC2 (stereo partly drawn) [compound 27, (2R,2′R,3a′R,13a′R)-2′-(((1-Benzyl-1H-1,2,3-triazol-4-yl)methoxy)methyl)-12′-hydroxy-7′,13a′-dimethoxy-5′-methyl-3a′,4′,8′,9′, 10′, 13a′-hexahydro-2′H,11′H-spiro [oxirane-2, 1′-[2,4]epoxyfuro[3,2-b]naphtho[2.3-h]chromen]-11′-one] | – | > 100 | ablates potency
12 | COc1c2c(c(O)c3c4c(c(C)cc13)C1OC3(CO[C@@H]5O[C@H](COC(C)=O)[C@@H](OC(C)=O)[C@H](OC(C)=O)[C@H]5OC(C)=O)OC1[C@@](OC)(O4)[C@@]31CO1)C(=O)CCC2 (stereo partly drawn) [compound 28, (2R,3R,4S,5R,6R)-2-(Acetoxymethyl)-6-(((2R,13a′R)-12′-hydroxy-7′,13a′-dimethoxy-5′-methyl-11′-oxo-3a′,8′,9′,10′,11′,13a′-hexahydro-2′H,4′H-spiro [oxirane-2,1′-[2,4]epoxyfuro[3,2-b]naphtho[2,3-h]chromen]-2′-yl)methoxy) tetrahydro-2H-pyran-3,4,5-triyl triacetate] | – | > 100 | poorly tolerated
13 | COc1c2c(c(O)c3c4c(c(C)cc13)C1OC3(COCC5OC(CO)C(O)C(O)C5O)OC1[C@@](OC)(O4)[C@@]31CO1)C(=O)CCC2 (stereo partly drawn) [compound 29, (2R,13a′R)-12′-Hydroxy-7′,13a′-dimethoxy-5′-methyl-2′-((((2R,3R,4S,5S,6R)-3,4,5-trihydroxy-6-(hydroxymethyl)tetrahydro-2H-pyran-2-yl)oxy)methyl)-3a′ 4′,8′,9′, 10′,13a′-hexahydro-2′H. 11′H-spiro [oxirane-2,1′-[2,4]epoxyfuro[3,2-b]naphtho[2,3-h]chromen]-11′-one] | – | – | poorly tolerated
14 | COc1c2c(c(O)c3c4c(c(C)cc13)C1OC3(COC5CC(C)(O)C(OC(C)=O)C(C)O5)OC1[C@@](OC)(O4)[C@@]31CO1)C(=O)CCC2 (stereo partly drawn) [compound 30, (25,3S,4R,6S)-4-Hydroxy-6-(((2R,13a′R)-12′-hydroxy-7′,13a′-dimethoxy-5′-methyl-11′-oxo-3a′,8′,9′,10′,11′,13a′-hexahydro-2′H,4′H-spiro [oxirane-2,1′-[2,4]epoxyfuro[3,2-b]naphtho[2,3-h]chromen]-2′-yl)methoxy)-2,4-dimethyltetrahydro-2H-pyran-3-yl acetate] | – | 20 | well tolerated
15 | COc1c2c(c(O)c3c4c(c(C)cc13)C1OC3(CBr)OC1[C@@](OC)(O4)[C@@]31CO1)C(=O)CCC2 (stereo partly drawn) [compound 32, (2S,2′S,3a′R,13a′R)-2′-(Bromomethyl)-12′-hydroxy-7′,13a′-dimethoxy-5′-methyl-3a′,4′,8′9′,10′,13a′-hexahydro-2′H,11′H-spiro [oxirane-2,1′-[2,4]epoxyfuro[3,2-b]naphtho[2,3-h]chromen]-11′-one] | 20 | – | good tolerance
16 | COc1c2c(c(O)c3c4c(c(C)cc13)C1OC3(CSC(C)=O)OC1[C@@](OC)(O4)[C@@]31CO1)C(=O)CCC2 (stereo partly drawn) [compound 33, S-(((25,2'S,3a′R,13a′R)-12′-hydroxy-7′,13a′-dimethoxy-5′-methyl-11′-oxo-3a′,8′,9′,10′,11′,13a′-hexahydro-2′H,4′H-spiro [oxirane-2,1′-[2,4]epoxyfuro[3,2-b]naphtho[2,3-h]chromen]-2′-yl)methyl)ethanethioate] | – | 100 | lack of activity
